In patent US20200094070A1, “METHOD AND APPARATUS FOR PHOTOACTIVATING NUCLEAR RECEPTORS” (THERALASE BIOTECH INC., priority 2017, published 2020):

Key:
[1] = system: Rat glioma (RG2) cells; assay: LLLT combined with 14C PDT, Presto Blue cell kill, RG2 cells; format: cell-based; conditions: for 14C-mediated cell kill after LLLT: RG2, 100 nM 14C
Experimental: (§4) RG2 cells (15,000 cells) or human bladder cancer (T24) cells (10,000 cells) were seeded in complete DMEM in 96-well culture plates and incubated at 37° C., 5% CO2 overnight. The next day, the cells were washed once with PBS and the medium was replaced with complete DMEM without phenol red or sodium pyruvate. Cells were treated with either 660 nm, 905 nm or a combination of both wavelengths at the indicated fluence doses in J/cm^2. After 6 or 24 hours, the media was replaced with media containing the ruthenium-based PDC 14C (100 nM for RG2 cells and 200 nM for T24 cells) for 1 hour, then the PDC was washed away and the cells were treated with PDT using green laser light (wavelength: 530 nm, fluence 20 J/cm^2) using a 96-laser diode array light source (TLD3000, Theralase Inc. Toronto, ON, Canada), after which the plates were returned to the dark in the incubator overnight. Cell viability was measured by Presto Blue cell viability assay quantifying fluorescence at using a plate reader at excitation emissions of 560/600 nm. PDT-mediated cell kill was calculated by subtracting cell kill due to LLLT first and values were normalized to control cells that were kept in the dark and not treated with LLLT.
(§5) RG2 cells (7,500 cells) or human bladder cancer (T24) cells (5,000 cells) were seeded in complete DMEM in 96-well culture plates and incubated at 37° C., 5% CO2 overnight. The next day, the cells were washed once with PBS and the medium was replaced with complete DMEM without phenol red or sodium pyruvate, with or without 10 uM GCR antagonist mifepristone for an additional 24 hours. Cells were treated with either 660 nm, 905 nm or a combination of both wavelengths at the indicated energy doses in J/cm^2. After 6 or 24 hours, the media was replaced with media containing the ruthenium-based photodynamic compound 14C (100 nM for RG2 cells and 200 nM for T24 cells) for 3 hours, then the drug was washed away and the cells were treated with PDT using green laser (wavelength: 530 nm, fluence 20 J/cm^2) using a 96-laser diode array light source (TLD-3000, Theralase Inc. Toronto, ON, Canada), and the plates were returned to the dark in the incubator overnight. Cell viability was measured by Presto Blue cell viability assay quantifying fluorescence at using a plate reader at excitation emissions of 560/600 nm.

[2] = system: CT26WT tumor cells; assay: LLLT and PDT in vivo hind leg tumor model; design: species or system Balb/c mice; conditions: LLLT 2.5-20 J/cm^2 daily for 5 days; injection on day 5; suboptimal red light PDT 90 J/cm^2 4 hours after injection
Experimental: CT26WT tumor cells were implanted in the hind leg of Balb/c mice to develop a hind leg tumor model. […] TLD-1433 (14C) was injected on day 5 of LLLT treatment and suboptimal red light PDT (90 J/cm^2) was performed 4 hours after injection. Tumor size and survival were determined to examine the effect of LLLT on potentiating the effect of 14C-mediated PDT and improving the survival curve.

[3] = system: human bladder cancer (T24) cells; assay: LLLT combined with 14C PDT, Presto Blue cell kill, T24 cells; format: cell-based; conditions: for 14C-mediated cell kill after LLLT: T24, 200 nM 14C
Experimental: as §4, §5

[4] = system: Rat glioma (RG2) cells; assay: LLLT combined with Cisplatin, Presto Blue cell kill, RG2 cells; format: cell-based; conditions: for Cisplatin-mediated cell kill after LLLT: RG2, 1 ug/ml
Experimental: (§1) After 6 or 24 hours, the cells were treated with Cisplatin (1 ug/ml for RG2 cells or 1.5 ug/ml for T24 cells), and the plates were returned to the incubator overnight. Cell viability was measured by Presto Blue cell viability assay quantifying fluorescence at using a plate reader at excitation emissions of 560/600 nm. Values were normalized to control cells that were kept in the dark and not treated with LLLT.
(§2) After 6 or 24 hours, the cells were treated with Cisplatin (1 ug/ml for RG2 cells or 1.5 ug/ml for T24 cells), and the plates were returned to the incubator overnight. Cell viability was measured by Presto Blue cell viability assay quantifying fluorescence at using a plate reader at excitation emissions of 560/600 nm. Values will be normalized to control cells that are kept in the dark and not treated with LLLT.
(§3) Cells were then treated with either: 1) the ruthenium-based PDC 14C followed by PDT using a green laser light source (FIGS. 24A-24D); 2) the antineoplastic drug Cisplatin (FIGS. 25A-25D). The plates were then returned to the incubator overnight. Cell viability was measured by Presto Blue cell viability assay quantifying fluorescence at using a plate reader at excitation emissions of 560/600 nm. Values were normalized to control cells that were […].

[5] = system: human bladder cancer (T24) cells; assay: LLLT combined with Cisplatin, Presto Blue cell kill, T24 cells; format: cell-based; conditions: for Cisplatin-mediated cell kill after LLLT: T24, 1.5 ug/ml
Experimental: as §1, §2, §3

[6] = system: RG2 cells; conditions: Mifepristone 10 uM, 24 hours
Experimental: (§6) RG2 cells (30,000 cells) or human bladder cancer (T24) cells (20,000 cells) are seeded in complete DMEM in 96-well Seahorse culture plates (Agilent technologies) and incubated at 37° C., 5% CO2. The cells are treated for 24 hours with the GCR agonist, dexamethasone, or the GCR antagonist, Mifepristone (10 uM). The cells are then washed once with PBS and the medium replaced with complete DMEM without phenol red or sodium pyruvate. Cells are treated with either 660 nm, 905 nm or a combination of both wavelengths at energy doses from 0.5 to 10 J/cm^2. Cells are incubated for 24 hours. The media is then replaced with XF media without sodium bicarbonate and the plate placed at 37° C. in XF prep station (0% CO2) for 1 hour. Basal ECAR and OCR levels are measured using XFe96 analyzer (Agilent technologies) per the manufacturer's protocol.

[7] = system: human bladder cancer (T24) cells; conditions: Mifepristone 10 uM, 24 hours
Experimental: as §6

[8] = system: RG2 cells; assay: Stem-like characteristics of cancer cells (qPCR of stem cell genes, proliferation rate) after LLLT; format: cell-based, rat; conditions: 24 hours pre-treatment
Experimental: Cells were then treated with 905 nm at fluence doses of 5 or 20 J/cm^2. Cells were incubated for 6 hours, then the cells were washed once with PBS and harvested by TRIzol reagent for RNA extraction (Invitrogen) per the manufacturer's protocol. 2 ug of RNA were used to prepare cDNA using the high-capacity cDNA reverse transcription kit (Thermofisher) and the cDNA was diluted 1:10. 2 μl of cDNA was used per PCR reaction using the SYBR green master mix and qPCR was run on the LightCycler 480 (Roche). Gene expression was normalized to the housekeeping gene HPRT, and values were normalized to control cells that were kept in the dark and not treated with LLLT. Relative analysis of stem cell associated transcription factor genes CD133, OCT4, NANOG, SOX2 and LIN28a, or proliferation promoting genes NESTIN, MSI1, MELK and ALDH1a1. […] Phase contrast images (4×) were taken every 4 hours using the Incucyte ZOOM system to calculate percent confluency overtime. […] Proliferation rate was calculated as the inverse of T (time when cells reach confluency halfway between original seeding density (15%) and final 100% confluency). Data were normalized to the corresponding dark control group (0 J/cm^2) for each drug expressed as 1 (not shown). […]

[9] = LLLT 905 nm PW 5 J/cm^2 or 660 nm CW 2.5 J/cm^2 before PDT 530 nm 20 J/cm^2
[10] = LLLT higher fluence values of 20 and 10 J/cm^2
[11] = RG2, 10 uM pre-treatment, no LLLT
[12] = RG2, 10 uM, LLLT 905 nm 5 J/cm^2, 660 nm 2.5 J/cm^2 or combination 5 J/cm^2
[13] = T24, 10 uM pre-treatment, no LLLT
[14] = T24, 10 uM, LLLT 905 nm 5 J/cm^2, 660 nm 2.5 J/cm^2 or combination 5 J/cm^2
[15] = 5 J/cm^2 for 905 nm PW and most conditions with 660 nm CW alone (Example 9A)
[16] = 905 nm PW or combined 905 nm PW and 660 nm CW at 20 J/cm^2 (Example 9A)

Cc1ccnc(-c2cc(C)ccn2)c1.Cc1ccnc(-c2cc(C)ccn2)c1.[Cl-].[Cl-].[Ru+2].c1csc(-c2ccc(-c3ccc(-c4nc5c6cccnc6c6ncccc6c5[nH]4)s3)s2)c1 [14C]
14C-mediated cell kill after LLLT [1, 9]: increased
14C-mediated cell kill after LLLT [1, 10]: promoted cell survival
survival of mice, LLLT plus PDT compared to PDT only [2]: synergistically increased the survival
14C-mediated cell kill after LLLT [3, 9]: increased
14C-mediated cell kill after LLLT [3, 10]: promoted cell survival

CC#C[C@]1(O)CC[C@H]2[C@@H]3CCC4=CC(=O)CCC4=C3[C@@H](c3ccc(N(C)C)cc3)C[C@@]21C [Mifepristone]
effect of Mifepristone treatment on Cisplatin cell kill [4, 11]: did not have any significant effects
cell kill by Mifepristone treatment alone ([4]; RG2, 10 uM, 24 hours (Example 19)): did not induce cell kill
effect of Mifepristone pre-treatment on the synergistic effect of LLLT on Cisplatin [4, 12]: significantly inhibited
effect of Mifepristone treatment on PDT cell kill [1, 11]: did not have any significant effects
cell kill by Mifepristone treatment alone ([1]; RG2, 10 uM, 24 hours): did not induce cell kill
effect of Mifepristone pre-treatment on the synergistic effect of LLLT on 14C PDT [1, 12]: significantly inhibited
effect of Mifepristone treatment on Cisplatin cell kill [5, 13]: did not have any significant effects
cell kill by Mifepristone treatment alone ([5]; T24, 10 uM, 24 hours (Example 19)): did not induce cell kill
effect of Mifepristone pre-treatment on the synergistic effect of LLLT on Cisplatin [5, 14]: significantly inhibited
effect on Warburg effect (glycolysis, mitochondrial respiration) [6]: potentiates the Warburg effect
effect on LLLT inhibition of the Warburg effect ([6]; then LLLT 0.5 to 10 J/cm^2): reverses the positive effect
effect of Mifepristone treatment on PDT cell kill [3, 13]: did not have any significant effects
cell kill by Mifepristone treatment alone ([3]; T24, 10 uM, 24 hours): did not induce cell kill
effect of Mifepristone pre-treatment on the synergistic effect of LLLT on 14C PDT [3, 14]: significantly inhibited
effect on Warburg effect (glycolysis, mitochondrial respiration) [7]: potentiates the Warburg effect
effect on LLLT inhibition of the Warburg effect ([7]; then LLLT 0.5 to 10 J/cm^2): reverses the positive effect
effect of Mifepristone pre-treatment on positive effects of LLLT on stem-like characteristics [8]: blocked

N.N.[Cl][Pt][Cl] [Cisplatin]
Cisplatin-mediated cell kill after LLLT [4, 15]: promoted cell survival
Cisplatin-mediated cell kill after LLLT [4, 16]: increased
Cisplatin effect after LLLT (without Mifepristone) ([4]; RG2, 905 nm 5 J/cm^2, 660 nm 2.5 J/cm^2 or combination 5 J/cm^2 (Example 19)): increased
Cisplatin effective cell kill after LLLT (without Mifepristone) ([4]; RG2, higher doses 10-20 J/cm^2 (Example 19)): decreased
Cisplatin-mediated cell kill after LLLT [5, 15]: promoted cell survival
Cisplatin-mediated cell kill after LLLT [5, 16]: increased
Cisplatin effect after LLLT (without Mifepristone) ([5]; T24, 905 nm 5 J/cm^2, 660 nm 2.5 J/cm^2 or combination 5 J/cm^2 (Example 19)): increased
Cisplatin effective cell kill after LLLT (without Mifepristone) ([5]; T24, higher doses 10-20 J/cm^2 (Example 19)): decreased
